{
  "source": "ChEMBL document CHEMBL5465560",
  "about": "“Selectivity Literature for EUbOPEN Chemogenomic Library” (2024)",
  "key": {"[1]": {"molecular_target": "T1, Tyrosine-protein kinase TXK (Homo sapiens) (UniProt P42681)", "T1 sequence (whole entry)": "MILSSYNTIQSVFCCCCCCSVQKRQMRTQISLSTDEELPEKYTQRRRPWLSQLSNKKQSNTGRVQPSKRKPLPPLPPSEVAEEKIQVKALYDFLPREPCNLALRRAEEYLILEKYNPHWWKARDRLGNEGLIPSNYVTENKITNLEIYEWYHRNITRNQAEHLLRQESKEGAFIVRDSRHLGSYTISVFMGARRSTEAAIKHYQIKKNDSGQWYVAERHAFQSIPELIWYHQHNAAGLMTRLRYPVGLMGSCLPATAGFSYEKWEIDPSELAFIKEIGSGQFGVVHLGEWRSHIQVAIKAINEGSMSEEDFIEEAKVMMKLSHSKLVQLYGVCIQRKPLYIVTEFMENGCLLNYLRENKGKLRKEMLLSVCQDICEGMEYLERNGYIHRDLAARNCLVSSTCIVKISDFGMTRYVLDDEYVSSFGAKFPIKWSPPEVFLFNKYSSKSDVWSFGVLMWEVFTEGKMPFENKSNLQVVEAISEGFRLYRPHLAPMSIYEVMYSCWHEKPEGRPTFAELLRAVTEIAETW", "assay": "Selectivity interaction (KinomeScan (DiscoverX)) EUB0000666a TXK", "settings": "at 10 µM"}, "[2]": {"molecular_target": "T2, Bone morphogenetic protein receptor type-2 (Homo sapiens) (UniProt Q13873)", "T2 sequence (whole entry)": "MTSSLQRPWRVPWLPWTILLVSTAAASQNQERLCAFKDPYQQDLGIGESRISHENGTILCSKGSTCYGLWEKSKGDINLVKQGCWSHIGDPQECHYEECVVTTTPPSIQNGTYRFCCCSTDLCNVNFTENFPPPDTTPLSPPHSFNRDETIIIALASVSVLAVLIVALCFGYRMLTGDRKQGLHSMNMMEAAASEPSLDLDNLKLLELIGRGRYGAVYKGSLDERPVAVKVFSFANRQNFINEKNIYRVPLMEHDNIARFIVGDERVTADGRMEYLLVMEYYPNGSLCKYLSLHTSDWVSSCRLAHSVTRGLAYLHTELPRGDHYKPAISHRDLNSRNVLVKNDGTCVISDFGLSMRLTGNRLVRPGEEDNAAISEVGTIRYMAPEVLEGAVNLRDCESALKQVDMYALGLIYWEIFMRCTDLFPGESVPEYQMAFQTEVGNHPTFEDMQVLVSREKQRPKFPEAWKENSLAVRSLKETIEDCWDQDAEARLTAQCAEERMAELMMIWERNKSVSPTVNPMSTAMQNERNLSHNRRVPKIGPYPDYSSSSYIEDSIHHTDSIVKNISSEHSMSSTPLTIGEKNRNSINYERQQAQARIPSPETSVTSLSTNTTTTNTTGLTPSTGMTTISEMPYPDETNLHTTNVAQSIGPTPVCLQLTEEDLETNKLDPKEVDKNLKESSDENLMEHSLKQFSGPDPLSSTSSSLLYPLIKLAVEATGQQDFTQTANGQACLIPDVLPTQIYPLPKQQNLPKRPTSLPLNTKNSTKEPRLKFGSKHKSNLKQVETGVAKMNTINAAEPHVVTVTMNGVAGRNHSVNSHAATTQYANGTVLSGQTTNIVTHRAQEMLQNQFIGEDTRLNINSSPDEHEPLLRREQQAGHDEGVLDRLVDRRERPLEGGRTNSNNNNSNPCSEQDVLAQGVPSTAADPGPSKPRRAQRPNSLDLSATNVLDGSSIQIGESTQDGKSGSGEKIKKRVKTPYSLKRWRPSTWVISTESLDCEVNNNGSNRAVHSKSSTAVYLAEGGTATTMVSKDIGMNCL", "assay": "Selectivity interaction (KinomeScan (DiscoverX)) EUB0001079a BMPR2", "settings": "at 1 µM"}, "[3]": {"molecular_target": "T2, Bone morphogenetic protein receptor type-2 (Homo sapiens)", "settings": "at 10 µM"}, "[4]": {"molecular_target": "T3, Serine/threonine-protein kinase D1 (Homo sapiens) (UniProt Q15139)", "T3 sequence (whole entry)": "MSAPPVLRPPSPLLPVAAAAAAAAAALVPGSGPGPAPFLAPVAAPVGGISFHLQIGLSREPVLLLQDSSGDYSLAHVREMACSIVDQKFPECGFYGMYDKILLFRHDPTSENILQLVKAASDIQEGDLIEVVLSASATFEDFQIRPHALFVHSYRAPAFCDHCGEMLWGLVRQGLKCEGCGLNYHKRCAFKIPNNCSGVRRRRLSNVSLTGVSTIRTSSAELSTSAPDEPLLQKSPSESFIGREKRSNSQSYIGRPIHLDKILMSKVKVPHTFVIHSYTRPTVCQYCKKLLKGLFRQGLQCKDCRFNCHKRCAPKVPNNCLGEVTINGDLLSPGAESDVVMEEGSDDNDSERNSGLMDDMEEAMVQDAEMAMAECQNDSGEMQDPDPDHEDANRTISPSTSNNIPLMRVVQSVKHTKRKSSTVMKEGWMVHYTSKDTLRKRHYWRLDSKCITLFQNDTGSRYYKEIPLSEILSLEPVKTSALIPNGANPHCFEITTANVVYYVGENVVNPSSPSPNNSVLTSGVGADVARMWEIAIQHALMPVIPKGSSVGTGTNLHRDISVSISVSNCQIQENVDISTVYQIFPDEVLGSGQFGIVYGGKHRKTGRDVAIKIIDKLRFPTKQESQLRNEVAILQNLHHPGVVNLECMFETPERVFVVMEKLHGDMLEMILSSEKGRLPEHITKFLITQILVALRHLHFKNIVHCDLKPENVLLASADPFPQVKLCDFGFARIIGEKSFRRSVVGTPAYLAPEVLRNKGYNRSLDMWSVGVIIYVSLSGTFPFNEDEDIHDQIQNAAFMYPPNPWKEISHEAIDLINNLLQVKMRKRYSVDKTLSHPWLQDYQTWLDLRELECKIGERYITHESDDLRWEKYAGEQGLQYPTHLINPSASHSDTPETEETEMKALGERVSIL", "assay": "Selectivity interaction (Kinase screening (Nanosyn)) EUB0000604a PRKD1"}, "[5]": {"molecular_target": "RAC-alpha serine/threonine-protein kinase (Homo sapiens, UniProt P31749)", "sequence (P31749 whole entry)": "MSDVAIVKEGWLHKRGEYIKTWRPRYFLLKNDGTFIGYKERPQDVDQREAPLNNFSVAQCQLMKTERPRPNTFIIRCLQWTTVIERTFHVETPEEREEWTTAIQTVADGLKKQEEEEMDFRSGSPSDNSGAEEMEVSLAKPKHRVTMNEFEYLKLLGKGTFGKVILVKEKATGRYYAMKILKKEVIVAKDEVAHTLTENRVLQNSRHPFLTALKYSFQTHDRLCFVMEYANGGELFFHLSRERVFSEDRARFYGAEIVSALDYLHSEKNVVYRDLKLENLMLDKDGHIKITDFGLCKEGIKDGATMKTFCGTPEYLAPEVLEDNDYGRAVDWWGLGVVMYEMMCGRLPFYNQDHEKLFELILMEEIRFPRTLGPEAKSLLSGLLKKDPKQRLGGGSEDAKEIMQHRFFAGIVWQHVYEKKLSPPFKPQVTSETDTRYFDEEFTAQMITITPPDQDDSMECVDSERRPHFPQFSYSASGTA", "assay": "Selectivity interaction (KinomeScan (DiscoverX)) EUB0000045b AKT1"}, "[6]": {"molecular_target": "Mitogen-activated protein kinase kinase kinase 10 (Homo sapiens) (UniProt Q02779)", "sequence (Q02779 whole entry, looked up)": "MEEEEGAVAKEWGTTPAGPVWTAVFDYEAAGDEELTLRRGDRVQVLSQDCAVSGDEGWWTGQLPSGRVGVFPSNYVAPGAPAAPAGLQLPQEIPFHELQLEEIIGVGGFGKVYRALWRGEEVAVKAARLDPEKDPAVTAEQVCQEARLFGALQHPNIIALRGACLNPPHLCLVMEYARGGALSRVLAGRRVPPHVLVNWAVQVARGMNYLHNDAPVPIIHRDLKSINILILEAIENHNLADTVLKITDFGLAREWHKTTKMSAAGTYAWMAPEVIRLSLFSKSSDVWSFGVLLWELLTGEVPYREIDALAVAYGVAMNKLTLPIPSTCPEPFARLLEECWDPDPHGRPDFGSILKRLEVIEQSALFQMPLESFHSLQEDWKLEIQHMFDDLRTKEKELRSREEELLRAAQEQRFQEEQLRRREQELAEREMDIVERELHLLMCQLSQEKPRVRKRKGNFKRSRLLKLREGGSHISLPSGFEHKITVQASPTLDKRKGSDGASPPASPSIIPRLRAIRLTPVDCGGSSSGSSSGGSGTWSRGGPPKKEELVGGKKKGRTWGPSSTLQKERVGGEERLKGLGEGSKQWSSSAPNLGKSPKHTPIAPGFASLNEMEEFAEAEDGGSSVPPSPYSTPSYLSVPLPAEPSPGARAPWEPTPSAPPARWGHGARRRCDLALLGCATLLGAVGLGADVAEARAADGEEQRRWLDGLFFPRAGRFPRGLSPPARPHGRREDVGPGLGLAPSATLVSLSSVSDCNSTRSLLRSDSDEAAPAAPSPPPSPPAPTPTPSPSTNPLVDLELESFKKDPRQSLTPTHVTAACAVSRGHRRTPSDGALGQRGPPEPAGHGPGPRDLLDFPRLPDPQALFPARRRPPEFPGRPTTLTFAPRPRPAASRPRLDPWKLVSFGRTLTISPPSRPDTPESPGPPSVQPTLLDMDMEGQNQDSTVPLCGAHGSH", "assay": "Selectivity interaction (KinomeScan (DiscoverX)) EUB0000655a MAP3K10", "settings": "at 10 µM"}, "[7]": {"molecular_target": "Fibroblast growth factor receptor 1 (Homo sapiens, UniProt P11362)", "sequence (P11362 22-822 limits assumed)": "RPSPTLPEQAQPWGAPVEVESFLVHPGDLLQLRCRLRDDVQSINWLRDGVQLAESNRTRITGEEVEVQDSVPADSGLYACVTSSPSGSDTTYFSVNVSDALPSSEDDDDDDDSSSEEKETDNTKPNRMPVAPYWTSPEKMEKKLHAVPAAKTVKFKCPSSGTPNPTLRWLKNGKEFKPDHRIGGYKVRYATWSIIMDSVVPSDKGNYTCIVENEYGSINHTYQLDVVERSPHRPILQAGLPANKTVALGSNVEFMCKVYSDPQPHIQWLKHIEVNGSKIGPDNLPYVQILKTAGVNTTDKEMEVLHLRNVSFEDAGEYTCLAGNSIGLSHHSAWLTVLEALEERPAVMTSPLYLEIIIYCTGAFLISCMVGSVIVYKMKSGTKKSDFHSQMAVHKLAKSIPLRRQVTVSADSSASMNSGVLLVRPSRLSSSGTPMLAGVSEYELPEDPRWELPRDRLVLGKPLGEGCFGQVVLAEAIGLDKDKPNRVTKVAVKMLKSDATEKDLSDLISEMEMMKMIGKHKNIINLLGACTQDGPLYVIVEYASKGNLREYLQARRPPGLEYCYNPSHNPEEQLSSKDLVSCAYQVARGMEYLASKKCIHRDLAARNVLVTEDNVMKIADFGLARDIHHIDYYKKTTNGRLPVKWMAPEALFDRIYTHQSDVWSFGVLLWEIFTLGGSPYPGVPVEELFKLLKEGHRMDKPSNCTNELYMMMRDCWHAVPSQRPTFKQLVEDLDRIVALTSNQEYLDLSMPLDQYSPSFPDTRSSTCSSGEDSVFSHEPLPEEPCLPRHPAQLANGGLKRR", "assay": "Selectivity interaction (KinomeScan (DiscoverX)) EUB0000655a FGFR1", "settings": "at 10 µM"}},
  "data": [
    {"smiles": "O=C(NOC[C@H](O)CO)c1ccc(F)c(F)c1Nc1ccc(I)cc1F", "values": [
      {"measurement": "% of control", "setting": "[1]", "value": 100, "unit": "%"}
    ]},
    {"smiles": "Nc1cnc(N2CCc3cc(S(=O)(=O)Nc4c(F)cc(Cl)cc4F)cc(N4CCCC4=O)c32)nc1", "note": "[TP-020n]", "values": [
      {"measurement": "% of control", "setting": "[2]", "value": 100, "unit": "%"}
    ]},
    {"smiles": "CCN(CC)CCCCNc1ncc2cc(-c3cc(OC)cc(OC)c3)c(NC(=O)NC(C)(C)C)nc2n1", "values": [
      {"measurement": "% of control", "setting": "[3]", "value": 100, "unit": "%"}
    ]},
    {"smiles": "Cc1cnc(Nc2ccc(F)cc2Cl)nc1-c1c[nH]c(C(=O)N[C@H](CO)c2cccc(Cl)c2)c1", "values": [
      {"measurement": "% of inhibition", "setting": "[4]", "value": 43, "unit": "%"}
    ]},
    {"smiles": "C=CC(=O)Nc1cc(-n2c(=O)ccc3cnc4ccc(-c5ccc(NS(C)(=O)=O)cc5)cc4c32)ccc1C", "values": [
      {"measurement": "% of control", "setting": "[5]; at 1 µM", "value": 12, "unit": "%"},
      {"measurement": "% of control", "setting": "[5]; at 10 µM", "value": 100, "unit": "%"}
    ]},
    {"smiles": "CN(C)CCOc1ccc(-c2nc(-c3ccncc3)c(-c3ccc4c(c3)CC/C4=N\\O)[nH]2)cc1", "values": [
      {"measurement": "% of control", "setting": "[6]", "value": 92, "unit": "%"},
      {"measurement": "% of control", "setting": "[7]", "value": 99, "unit": "%"}
    ]}
  ]
}
